Data taken from patent publication US8354414B2, “Substituted bicyclic pyrimidines” (Cephalon, Inc, priority 2006, dated 2013).
Structures can show the parent of a compound that is named as a salt.

Experiments:
[1] = molecular target: T1, His6-GSK-3β (Homo sapiens, UniProt P49841); assay: Inhibition of His6-GSK-3β kinase activity (ELISA-based format, time-resolved fluorescence readout); assay type: biochemical; details: class symbols; read-out: GSK3β IC50
T1 construct: made in house; host or cells: Sf21 insect cells (baculovirus)
In short: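 Plate-bound recombinant GST-Rb substrate was phosphorylated for 30 min at 37° C by baculovirus-expressed His6-GSK-3β (200 ng/ml) at 20 μM ATP, 10 mM MgCl2, 2.5% DMSO. Europium time-resolved fluorescence of anti-phospho-Ser780 Rb signal gave inhibition, fitted to IC50.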

[2] = molecular target: T2, CDK5/GST-p25 (Homo sapiens, UniProt Q00535); assay: Inhibition of CDK5/GST-p25 kinase activity (ELISA with time-resolved fluorescence readout); assay type: biochemical
T2 construct: The final construct, encoding for full-length human CDK5; made in house; host or cells: Sf21 insect cells (baculovirus co-infection)
In short: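 The substrate, GST-Rb(773-928), was immobilised on plates and phosphorylated for 20 min at 37 °C by 2 ng/ml CDK5/GST-p25 in HEPES pH 7.2 with 10 µM ATP and 10 mM MgCl2. Both proteins were human and co-expressed in insect cells. Ser-780 phosphorylation was read by europium time-resolved fluorescence and converted to IC50.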

T2 sequence (Q00535 whole entry): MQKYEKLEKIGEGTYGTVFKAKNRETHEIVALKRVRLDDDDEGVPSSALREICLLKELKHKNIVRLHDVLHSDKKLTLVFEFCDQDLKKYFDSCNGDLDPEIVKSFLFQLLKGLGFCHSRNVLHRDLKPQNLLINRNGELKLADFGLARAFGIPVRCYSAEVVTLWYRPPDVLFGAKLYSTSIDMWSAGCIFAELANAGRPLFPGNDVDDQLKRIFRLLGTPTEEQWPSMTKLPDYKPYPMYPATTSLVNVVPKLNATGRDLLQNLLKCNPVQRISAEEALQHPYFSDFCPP
T2 sequence (Q15078 108-307 partner limits assumed): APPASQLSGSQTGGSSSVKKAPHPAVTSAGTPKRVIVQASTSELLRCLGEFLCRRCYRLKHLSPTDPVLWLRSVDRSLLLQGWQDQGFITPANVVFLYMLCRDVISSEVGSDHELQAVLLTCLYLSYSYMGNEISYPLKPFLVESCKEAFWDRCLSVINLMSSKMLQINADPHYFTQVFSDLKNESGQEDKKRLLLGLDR
T1 sequence (P49841 2-419): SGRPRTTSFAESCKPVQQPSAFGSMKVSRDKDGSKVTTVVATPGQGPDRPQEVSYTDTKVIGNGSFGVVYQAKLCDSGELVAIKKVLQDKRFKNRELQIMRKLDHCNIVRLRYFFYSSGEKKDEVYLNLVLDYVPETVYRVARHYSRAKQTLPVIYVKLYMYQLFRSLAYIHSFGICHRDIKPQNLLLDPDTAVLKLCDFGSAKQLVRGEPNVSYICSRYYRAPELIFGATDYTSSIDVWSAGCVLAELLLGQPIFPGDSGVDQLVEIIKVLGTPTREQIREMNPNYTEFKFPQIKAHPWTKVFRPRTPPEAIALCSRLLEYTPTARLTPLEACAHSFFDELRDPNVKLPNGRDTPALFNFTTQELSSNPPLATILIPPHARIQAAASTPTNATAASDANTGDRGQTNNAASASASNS

Row | Compound | IC50 [1] [nM] | IC50 ([2]; numeric bounds) [nM] | IC50 ([2]; class symbols) [nM]
1 | O=C1Nc2ccc(Cl)cc2C1c1nc(NCc2cccnc2)nc2c1CCC2 (stereo not drawn) [Example 327, 5-Chloro-3-{2-[(pyridin-3-ylmethyl)-amino]-6,7-dihydro-5H-cyclopentapyrimidin-4-yl}-1,3-dihydro-indol-2-one] | 300 to 3000 | > 3000 | 
2 | CCCn1cc2c(C3C(=O)Nc4ccc(Br)cc43)nc(NCCC(F)(F)F)nc2n1 (stereo not drawn) [Example 192, 5-Bromo-3-[2-propyl-6-(3,3,3-trifluoro-propylamino)-2H-pyrazolo[3,4-d]pyrimidin-4-yl]-1,3-dihydro-indol-2-one] | < 300 |  | < 300
3 | CN(C)CCCNc1nc(C2C(=O)Nc3ccc(C#N)cc32)c2cn(C3CCCC3)nc2n1 (stereo not drawn) [Example 138, 3-[2-cyclopentyl-6-(3-dimethylamino-propylamino)-2H-pyrazolo[3,4-d]pyrimidin-4-yl]-2-oxo-2,3-dihydro-1H-indole-5-carbonitrile] | < 300 |  | 300 to 3000
4 | N#Cc1ccc2c(c1)C(c1nc(NCCCN3CCOCC3)nc3c1CCC3)C(=O)N2 (stereo not drawn) [Example 340, 3-[2-(3-Morpholin-4-yl-propylamino)-6,7-dihydro-5H-cyclopentapyrimidin-4-yl]-2-oxo-2,3-dihydro-1H-indole-5-carbonitrile] | 300 to 3000 |  | 300 to 3000
5 | N#Cc1ccc2c(c1)C(c1nc(NCc3ccc(Cl)nc3)nc3nn(C4CCCC4)cc13)C(=O)N2 (stereo not drawn) [Example 171, 3-{6-[(6-Chloro-pyridin-3-ylmethyl)-amino]-2-cyclopentyl-2H-pyrazolo[3,4-d]pyrimidin-4-yl}-2-oxo-2,3-dihydro-1H-indole-5-carbonitrile] | < 300 |  | < 300
6 | N#Cc1ccc2c(c1)C(c1nc(NCCCN3CCOCC3)nc3nn(C4CCCC4)cc13)C(=O)N2 (stereo not drawn) [Example 139, 3-[2-cyclopentyl-6-(3-morpholin-4-yl-propylamino)-2H-pyrazolo[3,4-d]pyrimidin-4-yl]-2-oxo-2,3-dihydro-1H-indole-5-carbonitrile] | < 300 |  | < 300
7 | CNCCNc1nc(C2C(=O)Nc3ccc(Br)cc32)c2cn(C)nc2n1 (stereo not drawn) [Example 360, 5-Bromo-3-[2-methyl-6-(2-methylamino-ethylamino)-2H-pyrazolo[3,4-d]pyrimidin-4-yl]-1,3-dihydro-indol-2-one hydrochloride salt] | 300 to 3000 |  | 300 to 3000

Next, values leading:

Row | IC50 [1] [nM] | IC50 ([2]; numeric bounds) [nM] | IC50 ([2]; class symbols) [nM] | Compound
8 | < 300 | > 3000 |  | CCCn1cc2c(C3C(=O)Nc4ccc(Br)cc43)nc(NC[C@@H]3CCCN3)nc2n1 (stereo partly drawn) [Example 361, 5-Bromo-3-{2-propyl-6-[((S)-1-pyrrolidin-2-ylmethyl)-amino]-2H-pyrazolo[3,4-d]pyrimidin-4-yl}-1,3-dihydro-indol-2-one]
9 | < 300 |  | > 10000 | CN(C)CCOc1nc(C2C(=O)Nc3ccc(C#N)cc32)c2cn(C3CCCC3)nc2n1 (stereo not drawn) [Example 122, 3-[2-cyclopentyl-6-(2-dimethylamino-ethoxy)-2H-pyrazolo[3,4-d]pyrimidin-4-yl]-2-oxo-2,3-dihydro-1H-indole-5-carbonitrile]
10 | < 300 |  | < 300 | C=CCNc1nc(C2C(=O)Nc3ccc(Br)cc32)c2cn(CCC)nc2n1 (stereo not drawn) [Example 193, 3-(6-Allylamino-2-propyl-2H-pyrazolo[3,4-d]pyrimidin-4-yl)-5-bromo-1,3-dihydro-indol-2-one]
11 | < 300 |  | > 10000 | N#Cc1ccc2c(c1)C(c1nc(N3CCN(CCc4cccs4)CC3)nc3nn(C4CCCC4)cc13)C(=O)N2 (stereo not drawn) [Example 130, 3-{2-cyclopentyl-6-[4-(2-thiophen-2-yl-ethyl)-piperazin-1-yl]-2H-pyrazolo[3,4-d]pyrimidin-4-yl}-2-oxo-2,3-dihydro-1H-indole-5-carbonitrile]
12 | < 300 |  | < 300 | O=C1Nc2ccc(Br)cc2C1c1nc(NCc2ccncc2)nc2nn(C3CCCC3)cc12 (stereo not drawn) [Example 180, 5-Bromo-3-{2-cyclopentyl-6-[(pyridin-4-ylmethyl)-amino]-2H-pyrazolo[3,4-d]pyrimidin-4-yl}-1,3-dihydro-1H-indol-2-one]
